Some test systems named below: NCI-H226 lung; IGROV1 ovarian; HCT-15 colon; K-562 leukemia; SK-OV-3 ovarian; SNB-19 CNS; HCC-2998 colon; HOP-62 NSCLC; COLO 205 colon; SR leukemia.
What all share (experiment): inhibition of tumour cell growth, NCI panel, 48 h

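Dose response: 5 concentrations. Exposure: 48 h. Format: 96-well plates. Endpoint: linear interpolation; highest concentration if not reached. GI50: concentration for 50% inhibition of growth. TGI marks complete inhibition of growth.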

On to `C=C1C(=O)C23C(CC(OC(C)=O)C1[C@@H]2OC(C)=O)C1(C)C(OC(C)=O)CCC(C)(C)C1C[C@@H]3OC(C)=O` (stereo partly specified), for which the TGI in the assay on NCI-H226 lung is 3.13 µM; with IGROV1 ovarian, 2.87 µM; with HCT-15 colon, 2.52 µM; in the assay with K-562 leukemia it was 3.6 µM; in the assay on SK-OV-3 ovarian, 3.59 µM; with SNB-19 CNS, 3.31 µM. Further, the TGI with HCC-2998 colon worked out at 3.24 µM; in the assay on HOP-62 NSCLC, 7.98 µM.

For the compound `O=C(O)C1C2CC3CC2CC31` (stereo unspecified), the TGI in the assay on IGROV1 ovarian, in the assay with HCT-15 colon, in the assay with K-562 leukemia, with SK-OV-3 ovarian, in the assay on SNB-19 CNS and in the assay on HOP-62 NSCLC was > 100 µM each time. Besides, in the assay on COLO 205 colon, the TGI was > 100 µM.

Consider `c1ccc(CN(Cc2ccccn2)Cn2cccn2)nc1`, for which the TGI in the assay with SR leukemia is > 100 µM; in the assay with HCT-15 colon it was 78.9 µM; with K-562 leukemia, > 100 µM; with SK-OV-3 ovarian, > 100 µM; in the assay on SNB-19 CNS it was > 100 µM; with HOP-62 NSCLC, > 100 µM. Also, the TGI with COLO 205 colon is > 100 µM.

In the case of `O=C(NNc1ccc([N+](=O)[O-])cc1)C1OC(CO)C(O)C1O` (stereo unspecified), the TGI with NCI-H226 lung, in the assay on IGROV1 ovarian, in the assay on HCT-15 colon, in the assay on K-562 leukemia, in the assay on SK-OV-3 ovarian and in the assay with SNB-19 CNS was > 100 µM throughout. Also, the TGI in the assay on HCC-2998 colon, with HOP-62 NSCLC and with COLO 205 colon was > 100 µM throughout.

With `N#CC(C#N)=C/C=C/c1cccc([N+](=O)[O-])c1`, the GI50 is 0.576 µM in the assay on SR leukemia; 0.71 µM in the assay on IGROV1 ovarian; 1.39 µM with HCT-15 colon; 1.59 µM with K-562 leukemia; 2.62 µM in the assay with SK-OV-3 ovarian; 3.35 µM in the assay on SNB-19 CNS. Besides, the GI50 with HCC-2998 colon was 1.68 µM; in the assay on HOP-62 NSCLC, 1.81 µM; in the assay on COLO 205 colon, 1.26 µM. The TGI was 15.3 µM in the assay on SR leukemia; 9.32 µM in the assay with IGROV1 ovarian; 3.98 µM in the assay with HCT-15 colon; > 100 µM with K-562 leukemia; 9.2 µM with SK-OV-3 ovarian; 16 µM with SNB-19 CNS. Also, the TGI was 3.05 µM in the assay with HCC-2998 colon, 6.39 µM in the assay on HOP-62 NSCLC and 3.26 µM in the assay with COLO 205 colon.

Turning to `OCC(O)C(OC1OC(CO)C(O)C(O)C1O)c1nn(-c2ccc(F)cc2)c2nc3cc(Cl)c(Cl)cc3cc12` (stereo unspecified), the TGI in the assay with SR leukemia, in the assay on HCT-15 colon, in the assay with K-562 leukemia, in the assay on SK-OV-3 ovarian, in the assay on SNB-19 CNS and with HCC-2998 colon was > 100 µM in each case. The TGI in the assay on HOP-62 NSCLC was > 100 µM.

Regarding `CN(C)c1ccc(/C=N/Nc2ccc(-c3nc4ccccc4[nH]3)cc2)cc1`, the GI50 in the assay with IGROV1 ovarian is 9.37 µM; in the assay with HCT-15 colon, 6.73 µM; in the assay with K-562 leukemia it was 2.86 µM; with SK-OV-3 ovarian, 21.2 µM; in the assay with SNB-19 CNS, 17.3 µM; in the assay on HOP-62 NSCLC, 20.8 µM. The GI50 in the assay on COLO 205 colon was 20.3 µM. Further, the TGI with IGROV1 ovarian is > 50 µM; with HCT-15 colon, 35.7 µM; in the assay on K-562 leukemia, 16.3 µM; in the assay with SK-OV-3 ovarian, > 50 µM; with SNB-19 CNS, > 50 µM; in the assay on HOP-62 NSCLC, > 50 µM. In addition, the TGI with COLO 205 colon is > 50 µM.

On to `Cc1ccc(NC(=O)CCC(=O)C(C#N)c2ccc(Cl)cc2)cc1C` (stereo unspecified), for which the TGI in the assay with NCI-H226 lung, with IGROV1 ovarian, in the assay on HCT-15 colon, in the assay with K-562 leukemia, in the assay on SNB-19 CNS and in the assay with HCC-2998 colon was > 100 µM throughout. The TGI in the assay on HOP-62 NSCLC was > 100 µM.

Regarding `Cc1[nH]nc(C(=O)N/N=C/c2cccs2)c1N=NN(C)C`, the TGI was 70.1 µM in the assay with NCI-H226 lung; 31.1 µM in the assay on IGROV1 ovarian; 38.5 µM in the assay with HCT-15 colon; > 100 µM with K-562 leukemia; 43.7 µM in the assay with SK-OV-3 ovarian; 27.6 µM in the assay with SNB-19 CNS. The TGI with HCC-2998 colon came to 26.6 µM; with HOP-62 NSCLC, 50.1 µM; with COLO 205 colon, 28.2 µM.

For `CC(C)c1cc2c(O)c(c1)Cc1cc(C(C)C)cc(c1O)Cc1cc(C(C)C)cc(c1O)Cc1cc(C(C)C)cc(c1O)Cc1cc(C(C)C)cc(c1O)Cc1cc(C(C)C)cc(c1O)C2`, the TGI in the assay with IGROV1 ovarian, in the assay with HCT-15 colon, in the assay with K-562 leukemia, with SNB-19 CNS, in the assay on HCC-2998 colon and with HOP-62 NSCLC was > 100 µM each time. Moreover, the TGI in the assay with COLO 205 colon was > 100 µM.

For the compound `Cc1ccc(NC(=O)NC23CC4CC(CC(F)(C4)C2)C3)cc1`, the TGI with IGROV1 ovarian, in the assay with K-562 leukemia, with SK-OV-3 ovarian, with SNB-19 CNS, in the assay on HCC-2998 colon and with HOP-62 NSCLC was > 100 µM each time. Also, in the assay with COLO 205 colon, the TGI is > 100 µM.

As to `C[Si](C)(C)[C@@]1([Se]c2ccccc2)CC[C@@H]1C(=O)c1ccccc1`, the TGI in the assay on NCI-H226 lung, in the assay with IGROV1 ovarian, with HCT-15 colon, in the assay on K-562 leukemia, in the assay on SK-OV-3 ovarian and in the assay on SNB-19 CNS was > 100 µM throughout. Moreover, the TGI with HCC-2998 colon, in the assay on HOP-62 NSCLC and in the assay on COLO 205 colon was > 100 µM in each case.

Take `O=C(O)c1oc2ccc([N+](=O)[O-])c3c2c1CCC3`: the TGI in the assay with NCI-H226 lung, in the assay with SNB-19 CNS, in the assay on HCC-2998 colon, with HOP-62 NSCLC and in the assay with COLO 205 colon was > 100 µM each time.

Take `COc1cc(C(N)=O)c(OC)c(OC)c1OC`: the TGI in the assay with NCI-H226 lung, with IGROV1 ovarian, with HCT-15 colon, in the assay with K-562 leukemia, with SK-OV-3 ovarian and with SNB-19 CNS was > 100 µM in each case. Also, the TGI in the assay on HCC-2998 colon, with HOP-62 NSCLC and with COLO 205 colon was > 100 µM throughout.

Consider `Cc1nc(Nc2ccc([N+](=O)[O-])cc2)sc1C(=O)/C=C/c1ccc(N(C)C)cc1`, for which the TGI in the assay on IGROV1 ovarian, with HCT-15 colon, in the assay on K-562 leukemia, in the assay on SK-OV-3 ovarian, in the assay with SNB-19 CNS and with HCC-2998 colon was > 100 µM each time. For the same compound, the TGI in the assay on HOP-62 NSCLC and in the assay with COLO 205 colon was > 100 µM in each case.

Consider `CC(=O)Nc1[nH]c(=O)[nH]c(=O)c1N(C(C)=O)C(C)=O`, for which the TGI in the assay with NCI-H226 lung, in the assay with IGROV1 ovarian, with HCT-15 colon, with K-562 leukemia, in the assay on SNB-19 CNS and in the assay on HCC-2998 colon was > 100 µM in each case. The TGI in the assay with COLO 205 colon was > 100 µM.

As for `Clc1cccc(C2SCc3nc4ccccc4n32)c1Cl` (stereo unspecified), the TGI amounted to 33.6 µM in the assay with IGROV1 ovarian; 36.5 µM with HCT-15 colon; 45 µM in the assay with K-562 leukemia; 34.9 µM in the assay on SK-OV-3 ovarian; 33.1 µM in the assay with SNB-19 CNS; 32 µM in the assay with HOP-62 NSCLC. In the assay with COLO 205 colon, this compound had a TGI of 36 µM.

Take `O=C1C=Cc2noc3cccc1c23`: the TGI with NCI-H226 lung amounted to 35.1 µM; with IGROV1 ovarian it was 29.4 µM; with HCT-15 colon, 10.8 µM; in the assay with K-562 leukemia it was 9.65 µM; with SK-OV-3 ovarian it was 32.1 µM; in the assay with SNB-19 CNS it was 31.3 µM. Moreover, the TGI was 28.6 µM with HCC-2998 colon and 34 µM with COLO 205 colon.

For `OCC1CC2CC1C1(C2)OCCO1` (stereo unspecified), the TGI in the assay on SR leukemia, in the assay with NCI-H226 lung, in the assay with IGROV1 ovarian, with K-562 leukemia, with SK-OV-3 ovarian and with SNB-19 CNS was > 100 µM throughout. For the same compound, the TGI in the assay on HOP-62 NSCLC and with COLO 205 colon was > 100 µM in each case.

As for `O=C(O)CNS(=O)(=O)c1ccc(NC(=O)c2cccc([N+](=O)[O-])c2)cc1`, the TGI with NCI-H226 lung, with IGROV1 ovarian, with HCT-15 colon, in the assay with K-562 leukemia, in the assay with SK-OV-3 ovarian and with SNB-19 CNS was > 100 µM each time. Further, the TGI in the assay on HCC-2998 colon and in the assay with COLO 205 colon was > 100 µM throughout.

As to `N#CCc1nc2c(s1)C(=O)c1ccccc1C2=O`, the TGI was 37.8 µM in the assay on NCI-H226 lung; 17.3 µM in the assay with IGROV1 ovarian; 29.9 µM with HCT-15 colon; 39.6 µM in the assay with K-562 leukemia; > 100 µM with SK-OV-3 ovarian; 40.7 µM with SNB-19 CNS. In addition, the TGI in the assay on HCC-2998 colon was 38 µM; with HOP-62 NSCLC it was 28.3 µM; with COLO 205 colon, 33.4 µM.

With `C=C(C)[C@@H]1CC[C@]2(C#N)CC[C@]3(C)[C@H](CC[C@@H]4[C@@]5(C)CCCNC(C)(C)[C@@H]5CC[C@]43C)[C@@H]12`, the GI50 was 2.61 µM in the assay with NCI-H226 lung; 1.82 µM in the assay with IGROV1 ovarian; 1.61 µM in the assay on HCT-15 colon; 2.09 µM in the assay on K-562 leukemia; 11.1 µM in the assay on SK-OV-3 ovarian; 2.29 µM in the assay with SNB-19 CNS. The GI50 was 1.8 µM in the assay with HCC-2998 colon, 1.65 µM in the assay on HOP-62 NSCLC and 1.96 µM in the assay on COLO 205 colon. In addition, the TGI worked out at 9.79 µM in the assay on NCI-H226 lung; 3.47 µM in the assay with IGROV1 ovarian; 3.05 µM in the assay on HCT-15 colon; 10.5 µM with K-562 leukemia; 25.4 µM in the assay with SK-OV-3 ovarian; 4.69 µM in the assay with SNB-19 CNS. Besides, the TGI was found to be 3.24 µM in the assay on HCC-2998 colon, 3.29 µM with HOP-62 NSCLC and 3.51 µM in the assay on COLO 205 colon.
